# Reference: patent US20130330756A1, “DETECTION OF BACTERIA EXHIBITING ENZYMATIC RESISTANCE TO CARBAPENEMS” (BIOMERIEUX, priority 2011, published 2013)
# Where two headings read alike, the source gives them in different places. Peptide text beside a SMILES is read from it. * marks the point of attachment. βNA = c1ccc2cc(N*)ccc2c1
# Key:
# Enterobacter IR strains = assay: Ertapenem E-test MIC, impermeability-resistant (IR) Enterobacter strains; format: cell-based, Enterobacter aerogenes, Enterobacter cloacae; settings: for MIC with ertapenem: E. aerogenes strain 9306074; for number of strains: >2 MIC steps impact on ertapenem MIC / number of strains: No impact on ertapenem MIC: Enterobacter IR strains, Mueller Hinton, cloxacillin 200 mg/l and/or PAbetaN 25 mg/l, vs medium without either
# Experimental: (§1) The effect of cloxacillin and PAbetaN on the MICs of the strains with ertapenem was evaluated firstly using E-test® strips in Mueller Hinton medium. […] The second test consisted in evaluating the impact of these 2 compounds on the MICs with ertapenem of 29 carbapenemases-producing strains (+1 ESBL).
# (§2) Test B100904: the 19 impermeability-resistant (IR) strains belong to the following species: 10 Enterobacter aerogenes, 2 Enterobacter cloacae, 1 Citrobacter freundii, 1 Pseudomonas aeruginosa, 3 Proteus mirabilis and 2 Morganella morganii.
# (§3) The E-tests were performed in Mueller-Hinton medium supplemented or not supplemented with cloxacillin and/or PAbetaN according to Table I:
# (§4) 2. Test • Production for each strain of an approximately 0.5 McF suspension in a 0.85% NaCl ampule. • Seeding of the 4 media by semi-automatic swabbing. • Drying of the dishes at ambient temperature for 5 to 15 min. • Application of the ertapenem E-test® strip. • Incubation for 16 to 20 hours at 37° C.
# Citrobacter IR strain = assay: Ertapenem E-test MIC, IR Citrobacter strain; format: cell-based, Citrobacter freundii; settings: cloxacillin 200 mg/l and/or PAbetaN 25 mg/l, vs medium without either
# Experimental: as §1, §2, §3, §4
# Proteus IR strains = assay: Ertapenem E-test MIC, IR Proteus strains; format: cell-based, Proteus mirabilis; settings: cloxacillin 200 mg/l and/or PAbetaN 25 mg/l, vs medium without either
# Experimental: as §1, §2, §3, §4
# Morganella IR strains = assay: Ertapenem E-test MIC, IR Morganella strains; format: cell-based, Morganella morganii; settings: cloxacillin 200 mg/l and/or PAbetaN 25 mg/l, vs medium without either
# Experimental: as §1, §2, §3, §4
# Pseudomonas IR strain = assay: Ertapenem E-test MIC, IR Pseudomonas strain; format: cell-based, Pseudomonas aeruginosa
# Experimental: as §1, §2, §3, §4
# [1] = system: 19 impermeability-resistant (IR) strains; assay: Ertapenem E-test MIC, all 19 IR strains (TOTAL); format: cell-based; settings: for number of strains: >2 MIC steps impact on ertapenem MIC / number of strains: No impact on ertapenem MIC / number of strains: ≦2 MIC steps impact on ertapenem MIC: TOTAL of 19 IR strains, cloxacillin 200 mg/l and/or PAbetaN 25 mg/l, vs medium without either
# Experimental: as §1, §2, §3, §4
# [2] = system: ESBL Escherichia coli strain; assay: Ertapenem E-test MIC, ESBL strain; format: cell-based; settings: cloxacillin 200 mg/l and/or PAbetaN 25 mg/l, vs medium without either
# Experimental: as §1
# (§5) Test B101001: twenty-nine carbapenemase-producing strains divided as follows: 27 Klebsiella pneumoniae strains producing class A KPC carbapenemase (KPC), and 2 strains respectively of Klebsiella pneumoniae and Citrobacter freundii which produce class-B carbapenemase (NDM-1). This test also comprised an ESBL Escherichia coli strain.
# as §3, §4
# [3] = system: class-B carbapenemase (NDM-1) producing strains; assay: Ertapenem E-test MIC, NDM-1 strains; format: cell-based, Klebsiella pneumoniae, Citrobacter freundii; settings: cloxacillin 200 mg/l and/or PAbetaN 25 mg/l, vs medium without either
# Experimental: as §1, §5, §3, §4
# [4] = system: class A KPC carbapenemase producing strains; assay: Ertapenem E-test MIC, KPC strains; format: cell-based, Klebsiella pneumoniae
# Experimental: as §1, §5, §3, §4
# [5] = system: carbapenemase-producing strains; format: cell-based
# Experimental: as §1, §5, §3, §4
# [6] = system: carbapenemase-producing strains; assay: Agar dilution growth on chromogenic media with faropenem, carbapenemase-producing strains; format: cell-based
# Experimental: (§6) Seventy-seven strains of Gram-negative bacteria, of which 71 are enterobacteria and 6 non-enterobacteria (non-fermenting bacteria), whose resistance characteristics are set out in Table IV, were tested on media containing different concentrations of faropenem and cloxacillin, with or without PAbetaN, in order to establish the sensitivity and the specificity of each formulation. The tested media are described in Table V.
# (§7) The chromogenic media are divided into 120×120 square dishes.
# (§8) The seeding is performed from 24-h pre-cultures at 37° C. on trypcase soy agar. For each strain, a 0.5 McF suspension in physiological water is produced. Each suspension is spot-seeded (1 to 2 μL) on each medium with the aid of a multi-point inoculator according to the Agar Dilution (AD) method. Readings are performed after 24 hours of incubation at 37° C.
# (§9) An absence of bacterial growth or a number of colonies which is less than or equal to 3 are considered as corresponding to a growth inhibition. The presence of 4 colonies or more is considered to be positive growth.
# 19 IR strains = assay: Agar dilution growth on chromogenic media with faropenem, IR strains; format: cell-based; settings: for additional IR strains inhibited: faropenem 16 mg/L
# Experimental: as §6, §7, §8, §9
# [7] = Pseudomonas IR strain, cloxacillin 200 mg/l and/or PAbetaN 25 mg/l, vs medium without either
# [8] = PAbetaN added to cloxacillin, against MICs with cloxacillin, 17 strains already decreased >2 steps by cloxacillin
# [9] = KPC strains, cloxacillin 200 mg/l and/or PAbetaN 25 mg/l, vs medium without either
# [10] = PAbetaN alone in Mueller Hinton
# [11] = TOTAL (ESBL+NDM+KPC), cloxacillin 200 mg/l and/or PAbetaN 25 mg/l, vs medium without either
compound,measurement,setting,value
C[C@@H](O)[C@H]1C(=O)N2C(C(=O)O)=C(S[C@@H]3CN[C@H](C(=O)Nc4cccc(C(=O)O)c4)C3)[C@H](C)[C@H]12 [ertapenem],MIC with ertapenem,Enterobacter IR strains; without PAbetaN,6 µg/mL
"NC(N)=NCCC[C@H](NC(=O)[C@@H](N)Cc1ccccc1)C(=O)Nc1ccc2ccccc2c1 [PAbetaN, phenylalanine-arginine-beta-naphthylamide] (H-Phe-Arg-βNA)",MIC with ertapenem,Enterobacter IR strains; in the presence of PAbetaN alone,> 32 µg/mL
same,number of strains: >2 MIC steps impact on ertapenem MIC,Enterobacter IR strains,2
same,number of strains: No impact on ertapenem MIC,Enterobacter IR strains,10
same,number of strains: No impact on ertapenem MIC,Citrobacter IR strain,1
same,number of strains: No impact on ertapenem MIC,Proteus IR strains,3
same,number of strains: No impact on ertapenem MIC,Morganella IR strains,2
same,effect on ertapenem MIC of adding PAbetaN in addition to cloxacillin,Pseudomonas IR strain; P. aeruginosa IR strain,not affected
same,number of strains: No impact on ertapenem MIC,Pseudomonas IR strain; [7],1
same,number of IR strains unimpacted,[1]; [8],1
same,number of IR strains with MICs decreased by two additional MIC steps,[1]; [8],7
same,number of IR strains with less significantly decreased MICs (≦2 MIC steps),[1]; [8],5
same,impact of PAbetaN alone on ertapenem MICs of the majority of the IR strains,[1]; PAbetaN alone,no impact
same,number of strains: >2 MIC steps impact on ertapenem MIC,[1],2
same,number of strains: No impact on ertapenem MIC,[1],17
same,number of strains: ≦2 MIC steps impact on ertapenem MIC,[1],0
same,"number of strains: ≦2 MIC steps, positive MIC effect",[2],1
same,number of strains: No impact on ertapenem MIC,[3],2
same,"number of strains: >2 MIC steps, positive MIC effect",[4]; [9],7
same,number of strains: No impact on ertapenem MIC,[4]; [9],3
same,"number of strains: ≦2 MIC steps, negative MIC effect",[4]; [9],2
same,"number of strains: ≦2 MIC steps, positive MIC effect",[4]; [9],14
same,number of strains with MIC with ertapenem slightly increased,[5]; [10],15
same,number of strains with MIC with ertapenem very distinctly increased,[5]; [10],7
same,"number of strains: >2 MIC steps, positive MIC effect",[5]; [11],7
same,number of strains: No impact on ertapenem MIC,[5]; [11],5
same,"number of strains: ≦2 MIC steps, negative MIC effect",[5]; [11],2
same,"number of strains: ≦2 MIC steps, positive MIC effect",[5]; [11],15
same,detection sensitivity with vs without PAbetaN,[6]; 200 mg/L cloxacillin and 8 or 16 mg/L faropenem,does not change
same,detection sensitivity with vs without PAbetaN,[6]; 8 or 16 mg/L faropenem with 50 or 100 mg/L cloxacillin,greater
"Cc1onc(-c2ccccc2Cl)c1C(=O)N[C@@H]1C(=O)N2[C@@H]1SC(C)(C)[C@@H]2C(=O)O [CLX, cloxacillin]",MIC with ertapenem in medium with the named additive,Enterobacter IR strains; E. cloacae IR strain unimpacted by cloxacillin alone,> 32 µg/mL
same,number of strains: >2 MIC steps impact on ertapenem MIC,Enterobacter IR strains,11
same,number of strains: No impact on ertapenem MIC,Enterobacter IR strains,1
same,number of strains: >2 MIC steps impact on ertapenem MIC,Citrobacter IR strain,1
same,number of strains: >2 MIC steps impact on ertapenem MIC,Proteus IR strains,3
same,number of strains: >2 MIC steps impact on ertapenem MIC,Morganella IR strains,2
same,number of strains: ≦2 MIC steps impact on ertapenem MIC,Pseudomonas IR strain; [7],1
same,number of strains: >2 MIC steps impact on ertapenem MIC,[1],17
same,number of strains: No impact on ertapenem MIC,[1],1
same,number of strains: ≦2 MIC steps impact on ertapenem MIC,[1],1
same,IR strains whose MICs with ertapenem are reduced by more than 2 concentration steps,[1]; cloxacillin added to Mueller Hinton medium,16/19
same,number of strains: No impact on ertapenem MIC,[2],1
same,number of strains: No impact on ertapenem MIC,[3],2
same,"number of strains: >2 MIC steps, positive MIC effect",[4],2
same,number of strains: No impact on ertapenem MIC,[4],7
same,"number of strains: ≦2 MIC steps, negative MIC effect",[4],16
same,"number of strains: >2 MIC steps, negative MIC effect",[4]; 200 ug/mL,1
same,"number of strains: >2 MIC steps, positive MIC effect",[5]; [11],2
same,number of strains: No impact on ertapenem MIC,[5]; [11],10
same,"number of strains: ≦2 MIC steps, negative MIC effect",[5]; [11],16
same,"number of strains: >2 MIC steps, negative MIC effect","[5]; TOTAL (ESBL+NDM+KPC), cloxacillin 200 mg/l, vs medium without",1
same,number of carbapenemase-producing strains (NDM or KPC) with no impact on MIC with ertapenem,[5]; cloxacillin,9
same,number of carbapenemase-producing strains with MIC slightly reduced,[5]; cloxacillin,16
same,additional IR strains inhibited,19 IR strains; addition of 50 mg/L cloxacillin,6
same,additional IR strains inhibited,19 IR strains; addition of 200 mg/L cloxacillin,9
same,impact on growth of carbapenemase-producing strains,"[6]; cloxacillin alone, at the 3 concentrations of faropenem tested",little or no impact
"C[C@@H](O)[C@H]1C(=O)N2C(C(=O)O)=C([C@H]3CCCO3)S[C@H]12 [Faropenem, faropenem]",impact on growth of IR strains,"19 IR strains; faropenem alone, up to 16 mg/L",little impact
